# Assay results from patent US20140051601A1, “METABOLOMIC PROFILING OF CANCER” (METABOLAN INC., priority 2006, published 2014).
# What was measured:
# EGFR = EGFR (Homo sapiens, UniProt P00533); experiment: Immunoblot analysis of EGFR phosphorylation and total EGFR; details: for total EGFR levels: upon treatment, PrEC
# RWPE cells [1] = experiment: Sarcosine-induced invasion after pre-treatment with EGFR inhibitor; assay type: cell-based; details: pre-treatment of RWPE cells with 10 μM
# Excerpt: (§1) To investigate the biological role of sarcosine elevation in prostate cancer, prostate cancer cell lines VCaP, DU145, 22RV1 and LNCaP and their benign epithelial counterparts, primary benign prostate epithelial cells PrEC and immortalized benign RWPE prostate cells were used.
# [2] = test system: benign prostate epithelial cells; experiment: Modified Boyden chamber matrigel invasion assay, exogenous addition of amino acids; assay type: cell-based; details: compared with sarcosine
# Method: as §1
# (§2) To determine if sarcosine plays a role in this process, it was added directly to non-invasive benign prostate epithelial cells. Alanine (an isomer of sarcosine) was used as a control for these experiments. […] The present invention is not limited to a particular mechanism. Indeed, an understanding of the mechanism is not necessary to practice the present invention.
# RWPE cells [3] = experiment: Invasion upon exogenous sarcosine or glycine with siRNA knock-down of GNMT; assay type: cell-based
# Method: as §2
# src = experiment: Immunoblot analysis of src phosphorylation; assay type: cell-based; details: sarcosine-treated PrEC compared to alanine-treated controls
# Excerpt: (§3) Also total EGFR levels were elevated upon treatment with alanine or sarcosine. […]. […] This observation was further strengthened using both antibody-mediated inhibition of EGFRactivity and siRNA-mediated knock-down of receptor levels.
# p38MAPK = experiment: Immunoblot analysis of p38MAPK phosphorylation; assay type: cell-based; details: sarcosine-treated PrEC
# Excerpt: as §3
# [4] = control non-target siRNA-transfected cells
# EGFR, sequence (P00533 25-1210): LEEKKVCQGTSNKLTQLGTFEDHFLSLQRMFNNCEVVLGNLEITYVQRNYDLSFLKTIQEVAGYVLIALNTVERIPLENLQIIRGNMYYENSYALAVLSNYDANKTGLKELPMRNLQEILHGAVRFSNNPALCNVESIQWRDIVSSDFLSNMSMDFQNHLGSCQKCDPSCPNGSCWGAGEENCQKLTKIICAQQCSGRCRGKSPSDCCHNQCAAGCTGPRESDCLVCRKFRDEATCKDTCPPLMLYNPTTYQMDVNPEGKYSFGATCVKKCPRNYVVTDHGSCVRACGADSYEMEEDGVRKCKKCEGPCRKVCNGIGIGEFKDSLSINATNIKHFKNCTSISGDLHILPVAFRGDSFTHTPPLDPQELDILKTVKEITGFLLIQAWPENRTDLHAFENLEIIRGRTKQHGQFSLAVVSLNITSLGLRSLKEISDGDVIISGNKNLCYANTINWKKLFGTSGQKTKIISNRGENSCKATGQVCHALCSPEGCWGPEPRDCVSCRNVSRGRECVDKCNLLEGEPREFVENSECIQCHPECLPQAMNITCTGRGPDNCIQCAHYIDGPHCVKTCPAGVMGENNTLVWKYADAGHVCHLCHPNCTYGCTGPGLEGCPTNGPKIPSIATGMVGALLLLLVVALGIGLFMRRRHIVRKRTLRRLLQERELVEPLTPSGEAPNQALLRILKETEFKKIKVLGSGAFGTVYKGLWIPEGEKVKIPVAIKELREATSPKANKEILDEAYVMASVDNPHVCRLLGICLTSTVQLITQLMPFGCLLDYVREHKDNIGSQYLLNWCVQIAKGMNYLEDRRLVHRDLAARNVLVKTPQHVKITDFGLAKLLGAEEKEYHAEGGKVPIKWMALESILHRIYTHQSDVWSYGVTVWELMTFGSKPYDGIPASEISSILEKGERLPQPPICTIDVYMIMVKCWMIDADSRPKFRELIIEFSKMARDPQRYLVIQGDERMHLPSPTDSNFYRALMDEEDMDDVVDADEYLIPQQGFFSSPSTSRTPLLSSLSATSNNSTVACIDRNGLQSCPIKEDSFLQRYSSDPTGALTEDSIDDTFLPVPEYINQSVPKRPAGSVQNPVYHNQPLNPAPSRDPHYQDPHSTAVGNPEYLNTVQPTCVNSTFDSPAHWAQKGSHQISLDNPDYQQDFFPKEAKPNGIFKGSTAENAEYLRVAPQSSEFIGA
Compound,total EGFR levels (EGFR),"invasion upon exogenous amino acid addition, mean±SEM (RWPE cells [3]; GNMT knockdown)","invasion upon exogenous amino acid addition, mean±SEM (RWPE cells [3]; [4])",also measured
"C[C@H](N)C(=O)O [alanine, reference compound]",elevated,–,–,–
C#Cc1cccc(Nc2ncnc3cc(OCCOC)c(OCCOC)cc23)c1 [erlotinib],–,–,–,decrease in sarcosine-induced invasion (RWPE cells [1]): 2 fold
NCC(=O)O [glycine],–,0.20±0.03,0.46±0.04,"induction of invasion [2]: also induced invasion in these cells, although to a lesser degree than sarcosine"
"CNCC(=O)O [sarcosine, N-methylglycine]",elevated,0.64±0.07,0.65±0.05,src phosphorylation (src): time-dependent increase; p38MAPK phosphorylation (p38MAPK): phosphorylation of p38MAPK; EGFR phosphorylation (EGFR; sarcosine-treated PrEC compared to alanine-treated controls): time-dependent increase
